From patent US9155695B2, “Injectable ropinirole compositions and methods for making and using same” (Medtronic, Inc., priority 2013, dated 2015) come the findings set out here.

The nature of data set [1]: Pharmacokinetics of injectable ropinirole administered subcutaneously, steady state plasma levels. In kind it is in vivo. The following applies: minipigs, subcutaneous, ropinirole 15 mg/ml terminally sterilized (Table A).
For data set [2], the system named is site of infusion. The following applies: in vivo.
Data set [3] relates to site of infusion. In words: Toxicology, subcutaneous infusion site reaction. In kind it is in vivo, rabbits and minipigs. On the procedure:
Toxicology was tested on rats, rabbits and minipigs. A sterilized injectable ropinirole composition at 15 mg/mL/day was administered to the rabbits and minipigs. Injection sites were administered 1 mL of infusate per day for 3 days and tissues collected immediately after cessation of delivery. […] A slight trend towards larger reactions with higher concentrations/doses of ropinirole relative to vehicle-treated sites was found but was concluded to be much less severe than apomorphine-induced inflammation at clinically relevant doses (FIGS. 12 and 13).

Data set [4] is described as follows: Pharmacokinetics of injectable ropinirole administered subcutaneously, steady state plasma levels. In kind it is in vivo. The following applies: rats, subcutaneous, sterilized ropinirole HCl in sterile water for injection, no excipients.
Description: The rats were given sterilized ropinirole HCl in sterile water for injection, no excipients.
The subject of data set [5] is site of infusion. The experiment in a line: Histopathology score of site reactions in the subcutis at the cannula tip. The following applies: apomorphine, microscopic.

Counter-ions that a name gives are not always drawn.

As for `CCCN(CCC)CCc1cccc2c1CC(=O)N2` [ropinirole, 4-[2-(dipropylamino)ethyl]-1,3-dihydro-2H-indol2-one monohydrochloride], the “steady state plasma levels versus dose” value in data set [1] and in data set [4] was “approximate linear relationship to the dose administered” throughout. Besides, the “two and three repeat administrations to the same site versus single 3-day administration” value with site of infusion [2] is listed as “did not differ significantly”. Moreover, in the data set on site of infusion [3] (15 mg/mL/day, 1 mL per day for 3 days), the “inflammation/necrosis at the site of infusion” value is listed as “mild inflammation/necrosis”. Also, in the data set on site of infusion [3] (seen only at cannula tip in the subcutis upon microscopic evaluation), the “gross detectability of reactions at the local sites of infusion” value is “not detectable grossly at the surface of the skin”.

Turning to `CN1CCc2cccc3c2[C@H]1Cc1ccc(O)c(O)c1-3` [apomorphine], in the data set with site of infusion [5], the inflammation score entry is “severe” and the necrosis score result was “moderate”. The “size of site reaction relative to 15 mg/mL/day ropinirole” value with site of infusion [3] (minipig, 10 mg/3 mL/day, 3 days infusion) is on record as “approximately twice as large”.
